Results on five compounds are retold here after paper PMC11758266, “Lipid-Modulated, Graduated Inhibition of N-Glycosylation Pathway Priming Suggests Wide Tolerance of ER Proteostasis to Stress” (ACS Central Science, 2024).

Experiment [1] deals with T1, DPAGT1 (Homo sapiens, UniProt Q9H3H5).
T1 construct: full-length DPAGT1 bearing an additional tobacco etch virus (TEV) protease-cleavable N-terminal His6 tag; His6 with TEV protease cleavage site ([…]/S leader) (N, cleaved yes); made in house; host or cells: Spodoptera frugiperda Sf9 insect cells (baculovirus, pFB-LIC-Bse vector)
T1 sequence (Q9H3H5 with tags, fused parts or gaps): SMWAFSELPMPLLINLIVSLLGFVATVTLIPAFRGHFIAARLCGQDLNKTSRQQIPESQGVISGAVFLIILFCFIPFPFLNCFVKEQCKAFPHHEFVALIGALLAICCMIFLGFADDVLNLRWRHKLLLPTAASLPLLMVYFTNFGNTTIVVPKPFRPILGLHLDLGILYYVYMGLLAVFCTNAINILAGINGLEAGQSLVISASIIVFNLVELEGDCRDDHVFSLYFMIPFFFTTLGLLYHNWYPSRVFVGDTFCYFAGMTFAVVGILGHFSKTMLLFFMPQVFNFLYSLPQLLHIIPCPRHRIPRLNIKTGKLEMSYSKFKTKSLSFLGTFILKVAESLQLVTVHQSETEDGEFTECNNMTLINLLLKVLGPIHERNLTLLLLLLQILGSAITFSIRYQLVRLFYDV
The experiment in a line: DPAGT1 radiometric in vitro activity assay (end point, phosphorimaging of radio-TLC). Type of experiment: biochemical. To be noted: for % Activity of DPAGT1 in the presence of a tunicamycin analogue compared to a negative control (GFB): Table S1, analogue 1 µM, DPAGT1 1 µM, dolichyl monophosphate 50 µM, UDP-GlcNAc(1-14C) 50 µM, 37 °C, 21 min, three biological replicates; for DPAGT1 inhibition (in words) / activity at 1 µM: inhibitor 1 µM; for DPAGT1 inhibition (in words): enzyme:inhibitor 1:1, substrates 50 µM; for activity at 1 µM: enzyme:inhibitor 1:1, read-out: retained DPAGT1 activity (% of WT activity). The text has this:
Figure 2 Design, synthesis and in vitro inhibitory activity of lipid-altered tunicamycins. (A) Structure of DPAGT1 in complex with tunicamycin[21] showing key interactions primarily along TMH5 that in concert with a Trp122 “lid” create the lipid-engagement site (blue). This engagement contrasts with a small, gated pocket below bounded primarily by Leu293 in which only smaller moieties (here an acetamide) are accommodated (red). (B) Guided by this structure, as an apparent snapshot of a Michaelis complex-like mode of binding, modulation at two acyl sites in the core scaffold was explored. […] Semisynthesis allowed generation of graduated lipid tunicamycin analogues through regiochemical differentiation in carbamoylation to generate two key divergent intermediates: Tun-0E,0G and Tun-0E,2G. Subsequent differential acylations allow for generation of both symmetric and asymmetric Tun-XE,YG analogues. Reagents and conditions: (a) Ac2O, pyridine; (b) Boc2O, DMAP, THF; (c) NaOMe, MeOH; (d) 4 M HCl in dioxane, MeOH; (e) HATU, DIPEA, octanoic acid, DMF; (f) HATU, DIPEA, carboxylic acid; (g) HATU, DIPEA, 2 × carboxylic acid. (C) Residual % in vitro activity of DPAGT1 following incubation with analogues [DPAGT1 ([…]), MgCl2 (5 mM), Tun analogue ([…]), dolichol phosphate ([…]), and UDP-GlcNAc(1-^14C) ([…]) in 1% OGNG/CHS/cardiolipin] was assessed through end point assay at 37 °C via phosphorimaging. These were determined on the basis of three biological replicates, each using three technical replicates. Error bars shown are standard deviations.
The intended targeting and graduated modulation of DPAGT1’s PNPT activity was assessed in vitro using a highly pure recapitulated source. Briefly, full-length DPAGT1 bearing an additional tobacco etch virus (TEV) protease-cleavable N-terminal His6 tag was expressed using a baculovirus (DH10Bac)/insect cell (Spodoptera frugiperda Sf9) system using a pFB-LIC-Bse expression vector. DPAGT1 is an integral transmembrane enzyme, and thus, after harvesting and lysis, protein was extracted from the expression host membrane fraction using octyl glucose neopentyl glycol (OGNG) (1% w/v) and cholesterylhemisuccinate (CHS) (0.1% w/v) before isolation and purification by immobilized metal affinity chromatography (IMAC) using a Co^2+-charged (“TALON”) resin and elution with an imidazole gradient. To ensure that there were no confounding effects of the His6 tag, this was then cleaved with TEV protease followed by reverse IMAC and size exclusion chromatography in sequence.
Radiometric bisubstrate analyses allowed excellent sensitivity under the conditions necessary for proper recapitulation of the activity. Purified DPAGT1 (1 μM) was incubated with both substrates, dolichol monophosphate and radiolabeled UDP-N-acetyl-D-[1-^14C]glucosamine, at 50 μM, and the activity was determined directly by end point phosphor detection of product dolichol-PP-N-acetyl-D-[1-^14C]glucosamine formation.
MgCl2, 10 mM imidazole (pH 8.0), 200 mM NaCl , 2 mM TCEP (added fresh), 5% Glycerol, 0.18% OGNG, 0.01 8% CHS, 0.0036% cardiolipin) and the protein was eluted with WB supplemented with 250 mM imidazole (pH 8.0). The eluted protein was desalted using PD-10 columns (GE Healthcare) pre-equilibrated with gel filtration buffer (GFB: 20 mM HEPES (pH […]
cardiolipin). Desalted protein was subsequently treated with 10:1 TEV protease (w:w, protein:enzyme) overnight at 4 ° C. The TEV protease treated protein was separated from the 6-His-tagged enzymes and uncleaved DPAGT1 by incubation for 1 h with Talon resin (prepared as described above) at 4 °C for 1 h. The resin was collected in a column, the flowthrough collected and the protein sample was centrifuged at 21,500 rpm in a Beckman TA25.5 rotor for 10 min at 4 ° C. The supernatant was then concentrated to 0.5 mL using a 30 kDa cutoff PES concentrator (Corning), with mixing every 5 mins during concentration. The […]

The test system of experiment [2] is His-tagged IgG-Fc domain. The experiment in a line: In cell glycoprotein inhibition assay (IgG-Fc expression, SDS-PAGE and Western blot). Type of experiment: cell-based, human. To be noted: HEK293T cells, 3 days, analogue 10 µM down to 0.5 nM (Tun-8E,2G 300 µM down to 15 nM), Figure S13. (In general: Immunoblotting shows a protein as a band on a membrane.)
In experiment [3] the test system is ATF4. The experiment is described as follows: ATF4 high-content imaging assay in primary human dermal fibroblasts. Type of experiment: cell-based. To be noted: 6 h, Figures S8–S12. How it is done:
A targeted panel of tunicamycin analogues was tested in the ATF4 High Content Imaging assay to assess their ER stress generating ability in a primary cell line. Normal adult human dermal fibroblasts (NHDF-Ad, Lonza) were plated in a 96-well Phenoplate (PerkinElmer) at a seeding density of 10,000 cells per well in fibroblast growth medium (containing fibroblast basal medium, 10% FBS, 0.1% insulin, 0.1% hFGF-B, 0.1% Gentamicin/Amphotericin) and incubated at 37°C, 5% CO2. Treatment with pre-diluted compounds was performed after 24 hrs with final concentrations ranging from 10 µM – 5 nM (final DMSO concentration was 0.3%). Low control (0.3% DMSO final conc.) and high control (0.3 µM tunicamycin final conc.) wells were again included for assay normalization. Treated cells were incubated for 6 hrs at 37°C, 5% CO2 before fixing (4% PFA in PBS, 20 min at room temperature followed by washing (3x) with PBS). Direct ATF4 immunofluorescence staining was then performed, whereby cells were treated with a Coralite Plus 488-conjugated ATF4 Polyclonal antibody (CL488-10835, Proteintech) in a 1:100 dilution of Perm-block buffer (10% FBS, 0.3% TritonX-100 in PBS) for 2 hrs. Nuclei staining was then performed with DRAQ5 dye (ab108410, Abcam) at 1:1000 in PBS. Plates were imaged on a Leica SP8 confocal microscope equipped with 488 nm and 633 nm excitation and images were analysed using script-based algorithms as described for HEK cells above. […]

Entries after “also recorded” stand apart in the source; their conditions may differ.

Consider `CCCCCCCCC(=O)N[C@H]1[C@H](O[C@H]2O[C@H](CO)[C@@H](O)[C@H](O)[C@H]2NC(=O)CC(C)C)O[C@H](C[C@@H](O)[C@H]2O[C@@H](n3ccc(=O)[nH]c3=O)[C@H](O)[C@@H]2O)[C@H](O)[C@@H]1O` [Tun-9E,i5G], for which, in experiment [1], the “% Activity of DPAGT1 in the presence of a tunicamycin analogue compared to a negative control (GFB)” value came out at 54.8%, the “DPAGT1 inhibition (in words)” value is “increasing inhibitory activity in a graduated manner” and the activity at 1 µM came to 55%.

Take tunicamycin [reference compound]: in experiment [1], the “% Activity of DPAGT1 in the presence of a tunicamycin analogue compared to a negative control (GFB)” value was 0.18% and the “DPAGT1 inhibition (in words)” value was “complete inhibition”. In addition, the “glycosylation state of expressed IgG-Fc (in words)” value (shortened to “glycosylation state”) in experiment [2] is listed as “unglycosylated IgG Fc protein is observed”. Further, the “glycosylation state” value in experiment [2] (listed as Tun) is given as “expression of non-glycosylated IgG-Fc”. In addition, the “increase in ATF4 (in words)” value in experiment [3] is “leads to an increase in ATF4”.

Regarding `CCCCCCCC(=O)N[C@H]1[C@H](O[C@H]2O[C@H](CO)[C@@H](O)[C@H](O)[C@H]2NC(C)=O)O[C@H](C[C@@H](O)[C@H]2O[C@@H](n3ccc(=O)[nH]c3=O)[C@H](O)[C@@H]2O)[C@H](O)[C@@H]1O` [Tun-8E,2G], in experiment [1], the “% Activity of DPAGT1 in the presence of a tunicamycin analogue compared to a negative control (GFB)” value was 35.4%, the “DPAGT1 inhibition (in words)” value was “increasing inhibitory activity in a graduated manner” and the activity at 1 µM was 35%. In addition, the “glycosylation state” value in experiment [2] is reported as “unglycosylated IgG Fc protein is observed; also recorded: expression of non-glycosylated IgG-Fc”. Also, the “increase in ATF4 (in words)” value in experiment [3] is recorded as “only Tun itself leads to an increase in ATF4”.

Regarding `CCCCCCCCC(=O)N[C@H]1[C@@H](O[C@@H]2O[C@H](C[C@@H](O)[C@H]3O[C@@H](n4ccc(=O)[nH]c4=O)[C@H](O)[C@@H]3O)[C@H](O)[C@H](O)[C@H]2NC(=O)CCC)O[C@H](CO)[C@@H](O)[C@@H]1O` [Tun-4E,9G], in experiment [1], the “% Activity of DPAGT1 in the presence of a tunicamycin analogue compared to a negative control (GFB)” value is 93.6% and the “DPAGT1 inhibition (in words)” value was “little to no significant inhibition; also recorded: minimal DPAGT1 inhibition”.

`CCCCCCCCC(=O)N[C@H]1[C@H](O[C@H]2O[C@H](CO)[C@@H](O)[C@H](O)[C@H]2NC(=O)CCCCCCCC)O[C@H](C[C@@H](O)[C@H]2O[C@@H](n3ccc(=O)[nH]c3=O)[C@H](O)[C@@H]2O)[C@H](O)[C@@H]1O` [Tun-9E,9G]: in experiment [1], the “% Activity of DPAGT1 in the presence of a tunicamycin analogue compared to a negative control (GFB)” value worked out at 79.6% and the “DPAGT1 inhibition (in words)” value was “little to no significant inhibition; also recorded: minimal DPAGT1 inhibition”. Moreover, in experiment [2], the “glycosylation state” value is recorded as “expression of intact glycosylated protein”. In experiment [3], the “increase in ATF4 (in words)” value is “only Tun itself leads to an increase in ATF4”.
